# Values quoted from earlier work, collected in patent publication US20230228766A1, “SERUM BIOMARKERS FOR PREDICTING AND PREVENTING HEMORRHAGIC STROKE” (Texas Tech University System, priority 2020, published 2023).
# Conditions: free PRG in blood
structure (smiles),measurement,value
"CC(=O)[C@H]1CC[C@H]2[C@@H]3CCC4=CC(=O)CC[C@]4(C)[C@H]3CC[C@]12C [PRG, progesterone]","half-life of free, active form in blood",5 to 10 min
